In US7501542B2, “Highly-packed polycationic ammonium, sulfonium and phosphonium lipids” (Invitrogen Corporation, priority 1993, dated 2009):

Assays:
Jurkat cells = experiment: Transfection of Jurkat cells with pCMVCAT DNA, CAT activity of cell lysates; assay type: cell-based
Method: (§1) All cell lines were obtained from American Type Culture Collection (Rockville, Md.). Standard tissue culture methods were employed. Chinese hamster ovary (CHO-K1) cells were cultured in EMEM (GIBCO BRL) containing 2 mM proline and 5% (v/v) fetal bovine serum (FBS). NIH 3T3 cells were cultured in Dulbecco's-modified Eagle's medium (DMEM) containing 10% (v/v) calf serum (CS). Jurkat cells were cultured in RPMI 1640 (GIBCO BRL) containing 10% (v/v) FBS. Human fibroblasts were isolated from neonatal foreskin tissue and prepared as follows. Rinsed, fresh tissue was exposed to 25 units/ml dispase (Collaborative Research, Bedford, Mass.) overnight at 4° C., separated into epidermis and dermis, and the minced dermis was digested 10 min at 37° C. in 0.25% (v/v) trypsin, 1 mM EDTA. The reaction was stopped by a rinse and centrifugation in DMEM with 10% (v/v) FBS, in which the cells were also cultured. All cultures were incubated at 37° C., 5% CO2. Media for all cultures routinely included 100 units/ml penicillin and 100 μg/ml streptomycin.
For transfection of Jurkat cells in suspension, lipid and DNA (pCMVCAT) were diluted separately into 500 μl aliquots of Opti-MEM I Reduced Serum Medium (GIBCO BRL; serum-free). These aliquots were gently mixed and incubated at room temperature for 15-45 minutes to form lipid-DNA complexes. […]

NIH-3T3 cells = experiment: Transfection of NIH-3T3 cells with pCMV β-gal DNA, in situ β-galactosidase staining; assay type: cell-based
Method: as §1, with “streptomycin. […]” for “streptomycin.”
(§2) Cell lysates were assayed for β-galactosidase activity as described by Sanes et al. (1986) EMBO J. 5:3133. […] Transfection efficiency is evaluated by counting or estimating the number of β-gal positive cells (blue-stained cells). […]

CHO-K1 cells = experiment: Transfection of CHO-K1 cells with pCMV β-gal DNA, in situ β-galactosidase staining; assay type: cell-based, Chinese hamster; details: CHO-K1 cells (Table 3)
Method: as §1, with “streptomycin. […]” for “streptomycin.”
as §2

[1] = test system: primary human fibroblasts; experiment: Transfection of primary human fibroblasts with pCMV β-gal DNA, in situ β-galactosidase staining; assay type: cell-based
Method: All cell lines were obtained from American Type Culture Collection (Rockville, Md.). Standard tissue culture methods were employed. […] Human fibroblasts were isolated from neonatal foreskin tissue and prepared as follows. Rinsed, fresh tissue was exposed to 25 units/ml dispase (Collaborative Research, Bedford, Mass.) overnight at 4° C., separated into epidermis and dermis, and the minced dermis was digested 10 min at 37° C. in 0.25% (v/v) trypsin, 1 mM EDTA. The reaction was stopped by a rinse and centrifugation in DMEM with 10% (v/v) FBS, in which the cells were also cultured. All cultures were incubated at 37° C., 5% CO2. Media for all cultures routinely included 100 units/ml penicillin and 100 μg/ml streptomycin.
For transfection of CHO-K1, NIH-3T3, and human fibroblast cells in 24-well plates, lipid and DNA (PCMV β-gal) were diluted separately into 25 μl aliquots of Opti-MEM I Reduced Serum Medium (GIBCO BRL; serum-free). […]
Cells were rinsed with PBS, fixed for 5 minutes in 2% (v/v) formaldehyde, 0.2% glutaraldehyde in PBS, rinsed twice with PBS, and stained 2 hr to overnight with 0.1% β-gal, 5 mM potassium ferrocyanide, 5 mM potassium ferrocyanide, 2 mM MgCl2 in PBS. […] Transfection efficiency is evaluated by counting or estimating the number of β-gal positive cells (blue-stained cells). […]

N,N,N′,N′-tetramethyltetrapalmyl-sperminetetrammonium iodide [Compound 3]
effectiveness for DNA transfection (Jurkat cells; Jurkat cells (Table 4)): highly effective | transfection efficiency relative to DOSPA (Jurkat cells; Jurkat cells, lower concentration of lipid required for optimal activity): comparable to DOSPA | effectiveness for DNA transfection (NIH-3T3 cells; NIH-3T3 cells (Table 2)): highly effective | transfection effectiveness relative to DOSPA (NIH-3T3 cells; NIH-3T3 cells, low amounts of DNA): approximately 10 fold | effectiveness for DNA transfection (CHO-K1 cells): highly effective | transfection efficiency relative to DOSPA ([1]; human fibroblasts, lower concentration of lipid required for optimal activity): comparable to DOSPA | effectiveness for DNA transfection ([1]; primary human fibroblast cells (Table 1)): highly effective
